Consider 66 compounds from PubChem BioAssay AID1626 (SRMLSC, 2009).

The test system of the test is M. tuberculosis H37Rv growth inhibition. Description: M. tuberculosis H37Rv growth inhibitors, H37Rv strain (AID 1626). The settings on record: for IC90: measured here: IC90 against H37Rv; for CC50: measured here: Vero cell cytotoxicity.

For orientation: IC50 means the midpoint of a concentration-inhibition curve. For orientation: IC90 means the point of the concentration-response curve where the effect stands at 90%. A high value points to weaker potency. A word on the CC50: it is the concentration that lowers cell viability or growth by half. Read a low CC50 as greater toxicity to the cells. As to `COc1ccccc1-c1nnc(NC(=O)c2ccc3ncsc3c2)o1`, the IC50 is 4.17 µM, the IC90 was greater than 100 µM and the CC50 turned out to be 24.3 µM.
For the compound `O=Cc1ccc(-c2ccc(Cl)cc2Cl)[nH]1`, the IC50 was 8.46 µM and the IC90 is greater than 100 µM.
As to `CCN1CCN(Cc2ccc(NC(=O)c3cc(NC(=O)c4cc(-c5ccc(OC)cc5)n[nH]4)cc(OC)c3)cc2C(F)(F)F)CC1`, the IC50 is 4.41 µM, the IC90 was 5.93 µM and the CC50 amounted to 6.28 µM.
As for `Cc1nc(SCc2ccccc2F)c2oc3ccccc3c2n1`, the 90% effect concentration (IC90) was greater than 100 µM.
On to `N#Cc1ccc(-c2ccccc2)nc1SCC(=O)c1cc2ccccc2oc1=O`, for which the IC50 was 1.64 µM, the IC90 amounted to 2.16 µM and the CC50 was greater than 40 µM.
Regarding `COc1ccc(CCNc2cc(C)nc3c(-c4ccccc4)c(C)nn23)cc1OC`, the IC50 was 3.56 µM and the IC90 worked out at 8.82 µM.
As to `CCCN(CCC)C(=O)c1cc([N+](=O)[O-])cc2c1-c1ccc([N+](=O)[O-])cc1C2=C(C#N)C#N`, the IC50 is 8 µM, the IC90 turned out to be 9.91 µM and the CC50 is 33.6 µM.
On the same counts, the results for `Cc1ccc(-c2nc(NCc3ccco3)c3ccccc3n2)cc1` are 9.38 µM, 16.2 µM and greater than 40 µM.
As for `CC[C@H](CO)NCCN[C@H](CC)CO`, the IC50 is 0.778 µM and the IC90 is greater than 100 µM.
Take `c1ccc(CN2CCN(c3nc(NCc4ccco4)c4ccccc4n3)CC2)cc1`: the IC50 was 7.96 µM, the IC90 was 10.3 µM and the CC50 is 35.1 µM.
On the same counts, the results for `O=C(/C=C/c1ccccc1)Oc1cccc2cccnc12` are 7.94 µM, 9.54 µM and 37.2 µM.
On the same counts, the results for `c1ccc2c(-c3nc(C4CCCCC4)no3)cc(-c3ccncc3)nc2c1` are 7 µM, 10.9 µM and greater than 40 µM.
Turning to `CC(C)OC(=O)CSc1nnc(-c2ccc(Cl)cc2Cl)o1`, the IC50 was less than 0.195 µM and the IC90 was 9.2 µM.
Regarding `COc1ccc(/C=C2/Sc3ccc(C(=O)N4CCc5ccccc5C4)cc3NC2=O)cc1`, the IC50 was 20 µM, the IC90 was greater than 100 µM and the CC50 is greater than 40 µM.
As to `Cc1cc(-c2c(C)[nH]n(-c3ccccc3)c2=O)n[nH]1`, the IC50 was 10.5 µM, the IC90 was greater than 100 µM and the CC50 was found to be 36.2 µM.
On to `CCOC(=O)c1ccc(NC(=O)c2cc3ccccc3o2)cc1`, for which the IC50 was 4.67 µM and the IC90 is greater than 100 µM.
Consider `CCCCOc1ccc(C(=O)N/C(=C/C=C/c2ccccc2)C(=O)N2CCOCC2)cc1`, for which the IC50 was 13.9 µM, the IC90 is greater than 100 µM and the CC50 was greater than 40 µM.
On the same counts, the results for `CCNc1nc(NC(C)(C)C)nc(N2CCCCC2)n1` are 16 µM, 29.5 µM and greater than 40 µM.
As to `CC(C)(C)C(=O)/C=c1\s/c(=C\c2ccc(-c3ccc([N+](=O)[O-])cc3)o2)c(=O)n1CC(=O)NC(N)=O`, the IC90 is greater than 100 µM and the CC50 was greater than 40 µM.
As for `Cc1ccc(Sc2ccc(C=C3C(=O)N(C)C(=O)N(C)C3=O)o2)cc1`, the IC50 was 7.56 µM and the IC90 is 20.8 µM.
As for `c1ccc(CN2CCC(Nc3nc(-c4cccs4)nc4ccccc34)CC2)cc1`, the IC50 is 4.78 µM, the IC90 was determined as 6.93 µM and the CC50 is 17.5 µM.
Take `Nc1cccc(-c2cc3ccccc3oc2=O)c1`: the IC50 was 29.4 µM and the concentration for an effect of 90% (IC90) is greater than 100 µM.
Compound `O=C(CCSc1ccc(Cl)cc1)c1cccs1` yielded an IC90 greater than 100 µM.
Regarding `CCOC(=O)c1ccc(NC(=O)CCNC(=O)c2ccc([N+](=O)[O-])cc2)cc1`, the IC90 is greater than 100 µM.
The compound `CCOC(=O)c1ccc(N/C=C2\CCCCC2=O)cc1` registered an IC90 greater than 100 µM.
For the compound `CCOC(=O)c1ccc(NC(=O)Cc2coc3cc4c(cc23)CCC4)cc1`, the IC50 is 6.36 µM, the 90% effect concentration (IC90) is greater than 100 µM and the CC50 was greater than 40 µM.
On the same counts, the results for `O=C(CSc1ncn[nH]1)Nc1ccc(Br)cc1F` are 29.5 µM, greater than 100 µM and greater than 40 µM.
`Cc1ccc2nc(Cl)c(/C=C/C(=O)c3ccco3)cc2c1`: the IC50 is 2.26 µM, the IC90 worked out at 4.01 µM and the CC50 was found to be 25 µM.
On the same counts, the results for `Nc1c(C(=O)NCCc2ccccc2)c2nc3ccccc3nc2n1CCN1CCOCC1` are 18.6 µM, 25.4 µM and 31.4 µM.
As to `CCOC(=O)CSc1nc(N)c(C#N)c(-c2cccs2)c1C#N`, the IC50 was 1.59 µM and the IC90 stood at 3.27 µM.
Turning to `Cc1ccc(-c2ccccc2NC(=O)CCl)o1`, the IC50 is 18.6 µM, the IC90 was greater than 100 µM and the CC50 was greater than 40 µM.
On the same counts, the results for `Cc1cc(N2CCN(c3ccccc3)CC2)nc(-n2nc(C)cc2C)n1` are 8.84 µM, 47.3 µM and 18.3 µM.
On to `CCOC(=O)C1CCN(c2nc3cc(OC)ccc3cc2C#N)CC1`, for which the IC50 is 8.91 µM and the IC90 was 14.2 µM.
On the same counts, the results for `O=C(NCc1ccco1)c1cc([N+](=O)[O-])cc([N+](=O)[O-])c1` are 1.46 µM and 1.65 µM.
On the same counts, the results for `COC(=O)C1C(O)C(C)C(O)C(C)(O)/C=C\C=C(/C)C(=O)Nc2c(C)c(OC(C)=O)c3c(c2O)C(=O)C(C)=C2OCOC(=C23)/C(C)=C/C(C)(O)C(O)C(C)C1O` (stereo not drawn) are 0.32 µM and 0.878 µM.
In the case of `CC1Cc2ccccc2N1C(=O)COC(=O)c1ccc(Cl)nc1` (stereo not drawn), the IC50 was 10.7 µM and the IC90 was greater than 100 µM.
Regarding `Cc1ccc2nc(/N=C(\N)NC(=O)NC3CCCCC3)nc(C)c2c1`, the IC50 is 5.92 µM, the IC90 was found to be 6.73 µM and the CC50 turned out to be 25.3 µM.
`CCOc1ccc(N2C(=O)c3ccccc3C2=O)cc1` had an IC90 greater than 100 µM.
In the case of `Nc1nc(CN2CCN(C(c3ccccc3)c3ccccc3)CC2)nc(Nc2ccccc2)n1`, the IC50 was 36.4 µM, the IC90 was greater than 100 µM and the CC50 was greater than 40 µM.
On the same counts, the results for `Cc1ccc(C(=O)Nc2nnc(-c3ccco3)o2)cc1C` are less than 0.195 µM, greater than 100 µM and greater than 40 µM.
Regarding `Cc1ccc(NCc2nnc(SCC(=O)OC3CCCCC3)o2)c(C)c1`, the IC50 was 0.332 µM and the IC90 is 1.59 µM.
On the same counts, the results for `CCCSc1ccc(C(=O)Nc2ccc(Cl)cc2)cn1` are 27.9 µM and greater than 100 µM.
With `Fc1ccc(Sc2nc(-c3ccccc3)nnc2C(F)(F)F)cc1`, the IC50 was 90.4 µM, the IC90 is greater than 100 µM and the CC50 is greater than 40 µM.
Take `c1ccc(-c2cc(-c3ccncc3)nc3ccc4ccccc4c23)cc1`: the CC50 was greater than 40 µM.
As to `COc1ccc2cc(-c3[nH]ncc3CN3CCCN(c4ccccc4)CC3)ccc2c1`, the IC50 was 9.35 µM, the IC90 came to 15.4 µM and the CC50 is greater than 40 µM.
As for `Nc1ccc2c(c1)Cc1ccccc1-2`, the IC50 was 18.3 µM and the IC90 is greater than 100 µM.
`COc1ccc(OCCCC(=O)Nc2cccc(SC)c2)cc1`: the IC90 was greater than 100 µM.
With `COC(=O)CSc1nnc(-c2ccc(NS(=O)(=O)c3ccccc3)cc2)o1`, the IC50 was 1.9 µM and the IC90 was found to be 5.72 µM.
For the compound `COc1cc(CNCCc2ccccc2)cc(Cl)c1OCc1ccccc1`, the IC50 is 8.64 µM, the IC90 stood at 11 µM and the CC50 stood at 27.8 µM.
On the same counts, the results for `CCCCCCCCCCn1c2c(c(=N)c3c1CCC3)CCC2` are 2.42 µM, 3.59 µM and 6.09 µM.
On the same counts, the results for `Cc1ccc(-c2csc3nc[nH]c(=S)c23)cc1C` are 20 µM, greater than 100 µM and 26.1 µM.
In the case of `CC(Oc1ccc2oc3ccccc3c2c1)C(=O)NC12CC3CC(CC(C3)C1)C2` (stereo not drawn), the half-maximal inhibitory concentration (IC50) was 44.7 µM and the IC90 was greater than 100 µM.
On the same counts, the results for `Cc1ccc(-c2ccc(/C=N/c3ncn[nH]3)o2)cc1Cl` are 30.2 µM and greater than 100 µM.
Regarding `Cc1ccc2[nH]c3c(N4CCc5ccccc5C4)ncnc3c2c1`, the IC50 is 11.8 µM, the IC90 turned out to be 25.8 µM and the half-maximal cytotoxic concentration (CC50) was found to be 10.8 µM.
For the compound `CC(C)(C)C(=O)/C=C/Nc1ccccc1O`, the IC50 is 2.55 µM, the IC90 was 3.93 µM and the CC50 is greater than 40 µM.
Turning to `NC1CCN(c2c(F)cc3c(=O)c(C(=O)O)cn(C4CC4)c3c2Cl)C1` (stereo not drawn), the IC50 is less than 0.391 µM and the IC90 was less than 0.391 µM.
On to `CCOc1ccc(NC(C)c2cc(Cl)ccc2O)cc1` (stereo not drawn), for which the IC50 was 10.5 µM and the IC90 is greater than 100 µM.
On the same counts, the results for `CCOC(=O)C1CCCc2c1[nH]c1c(C(N)=O)cccc21` (stereo not drawn) are 3.38 µM and 29.1 µM.
Turning to `Cc1cc(=O)oc2ccc(OC(=O)CC(C)C)cc12`, the IC90 was greater than 100 µM.
As to `CC(C)Oc1ccc(C(=O)Nc2ccc(Cl)c(S(=O)(=O)Nc3ccc(Cl)cc3)c2)cc1`, the IC50 was 11.6 µM, the IC90 came out at 22.4 µM and the 50% cytotoxic concentration (CC50) came out at 28.9 µM.
Regarding `O=c1oc2ccc3ccccc3c2cc1-c1nc2ccccc2o1`, the IC50 was 2.79 µM and the IC90 stood at 7.33 µM.
On the same counts, the results for `Cc1cccc(-c2nsc(SCC(=O)NCc3ccc4c(c3)OCO4)n2)c1` are 7.57 µM and greater than 100 µM.
Regarding `O=C(c1ccc(COc2ccc(Cl)cc2)o1)N1CCN(Cc2ccc3c(c2)OCO3)CC1`, the IC50 was 10.8 µM, the IC90 was found to be 21.9 µM and the CC50 was greater than 40 µM.
For `N#C/C(=C(/O)COC(=O)CCC1CCCCC1)c1nc2ccccc2[nH]1`, the IC50 was 20.2 µM, the IC90 came to 25.1 µM and the CC50 is greater than 40 µM.
On the same counts, the results for `COC(=O)c1ccc(C(=O)OC)c(NC(=O)CN2CCN(c3ccccc3)CC2)c1` are 66.1 µM, greater than 100 µM and greater than 40 µM.
On the same counts, the results for `O=C(COc1ccc(Cl)cc1Cl)N1CCN(C/C=C/c2ccccc2)CC1` are 17 µM, 21.6 µM and greater than 40 µM.
